In patent US20070128217A1 (priority 2003, published 2007):

How the values were obtained:
[1] = tested on: rabbit serum obtained by immunizing a rabbit with the SARS-CoV strain Frankfurt 1; format: binding; parameters: Binding of a rabbit serum to linear peptides / Binding of a rabbit serum to looped peptides / Rabbit serum linear peptides / Rabbit serum looped peptides / Binding of a rabbit serum to linear peptides of protein N of SARS-CoV Urbani (Rabbit serum linear peptides) / Binding of a rabbit serum to looped/cyclic peptides of protein N of SARS-CoV Urbani (Rabbit serum looped peptides): unit not given here
[2] = tested on: antibodies in sera from SARS patients (sera 1a, 1b, 2, 6, 37, 62, London, SARS-yellow, SARS-green); format: binding, human; parameters: Binding of serum 6 to linear peptides of protein X1 of SARS-CoV Urbani / Binding of serum 37 to linear peptides of protein X1 of SARS-CoV Urbani / Binding of serum 6 to looped/cyclic peptide (PEPSCAN-ELISA) / Binding of serum 37 to looped/cyclic peptide (PEPSCAN-ELISA) / Binding of serum 37 to looped/cyclic peptides of protein X1 of SARS-CoV Urbani / Binding of serum 6 to linear peptides of protein X2 / Binding of serum 37 to linear peptides of protein X2 / Binding of serum 37 to looped/cyclic peptides of protein X2 of SARS-CoV Urbani / Binding of serum 6 to linear peptides of protein M of SARS-CoV Urbani / Binding of serum 37 to linear peptides of protein M of SARS-CoV Urbani / Binding of serum 6 to looped/cyclic peptides of protein M of SARS-CoV Urbani / Binding of serum 37 to looped/cyclic peptides of protein M of SARS-CoV Urbani / Binding of serum 6 to linear peptides of protein X3 of SARS-CoV Urbani / Binding of serum 37 to linear peptides of protein X3 of SARS-CoV Urbani / Binding of serum 37 to looped/cyclic peptides of protein X3 of SARS-CoV Urbani / Binding of serum 6 to linear peptides of protein X4 of SARS-CoV Urbani / Binding of serum 37 to linear peptides of protein X4 of SARS-CoV Urbani / Binding of serum 37 to looped/cyclic peptides of protein X4 of SARS-CoV Urbani / Binding of serum 6 to linear peptides of protein X5 of SARS-CoV Urbani / Binding of serum 37 to linear peptides of protein X5 of SARS-CoV Urbani / Binding of serum 37 to looped/cyclic peptides of protein X5 of SARS-CoV Urbani / Binding of serum 6 to linear peptides of protein N of SARS-CoV Urbani / Binding of serum 37 to linear peptides of protein N of SARS-CoV Urbani / Binding of serum 6 to linear peptide (PEPSCAN-ELISA) / Binding of serum 1a to looped/cyclic peptides of protein N of SARS-CoV Urbani / Binding of serum 1b to looped/cyclic peptides of protein N of SARS-CoV Urbani / Binding of serum 2 to looped/cyclic peptides of protein N of SARS-CoV Urbani / Binding of serum 6 to looped/cyclic peptides of protein N of SARS-CoV Urbani / Binding of serum 37 to looped/cyclic peptides of protein N of SARS-CoV Urbani / Binding of serum 62 to looped/cyclic peptides of protein N of SARS-CoV Urbani / Binding of serum London to looped/cyclic peptides of protein N of SARS-CoV Urbani / Binding of serum SARS-green to looped/cyclic peptides of protein N of SARS-CoV Urbani: unit not given here
[3] = tested on: recombinant human anti-SARS-CoV antibody 03-018; format: binding; parameters: Binding of antibody 03-018 to linear peptides of the N protein of SARS-CoV Urbani / Binding of antibody 03-018 to looped/cyclic peptides of the N protein of SARS-CoV Urbani: unit not given here
[4] = tested on: control sera (pooled serum of ten healthy LUMC hospital workers; commercial negative donor pooled serum from the Dutch bloodbank); format: binding, human; parameters: Binding of Control serum LUMC to linear peptides / Binding of Control serum Blood-bank to linear peptides / Binding of Control serum LUMC to looped peptides / Binding of Control Serum Blood-Bank to Looped peptides / Binding of Control serum LUMC to linear peptides of the protein M of SARS-CoV Urbani / Binding of Control serum Blood-bank to linear peptides of the protein M of SARS-CoV Urbani / Binding of Control serum LUMC to looped peptides of the protein M of SARS-CoV Urbani / Binding of Control Serum Blood-Bank to Looped peptides of the protein M of SARS-CoV Urbani: unit not given here

Row | Sequence | Binding of a rabbit serum to linear peptides of protein N of SARS-CoV Urbani (Rabbit serum linear peptides) [1] | Binding of a rabbit serum to looped/cyclic peptides of protein N of SARS-CoV Urbani (Rabbit serum looped peptides) [1] | Binding of serum 1a to linear peptides of protein N of SARS-CoV Urbani [2] | Binding of serum 1a to looped/cyclic peptides of protein N of SARS-CoV Urbani [2] | Binding of serum 1b to linear peptides of protein N of SARS-CoV Urbani [2] | Binding of serum 1b to looped/cyclic peptides of protein N of SARS-CoV Urbani [2] | Binding of serum 2 to linear peptides of protein N of SARS-CoV Urbani [2] | Binding of serum 2 to looped/cyclic peptides of protein N of SARS-CoV Urbani [2] | Binding of serum 6 to looped/cyclic peptides of protein N of SARS-CoV Urbani [2] | Binding of serum 37 to looped/cyclic peptides of protein N of SARS-CoV Urbani [2] | Binding of serum 62 to looped/cyclic peptides of protein N of SARS-CoV Urbani [2] | Binding of serum London to looped/cyclic peptides of protein N of SARS-CoV Urbani [2] | Binding of serum SARS-green to looped/cyclic peptides of protein N of SARS-CoV Urbani [2] | Binding of serum SARS-yellow to looped/cyclic peptides of protein N of SARS-CoV Urbani [2] | Binding of antibody 03-018 to linear peptides of the N protein of SARS-CoV Urbani [3] | Binding of antibody 03-018 to looped/cyclic peptides of the N protein of SARS-CoV Urbani [3] | Binding of Control Serum Blood-Bank to Looped peptides [4] | Binding of Control serum Blood-bank to linear peptides [4] | Binding of Control serum LUMC to linear peptides [4] | Binding of Control serum LUMC to looped peptides [4] | other results
1 | IRQGTDYKHWPQIAQ | 0.1 | 0.3 | 0.2 | 0.4 | 0.1 | 0.2 | 0.2 | 0.4 | 0.2 | 0.6 | 0.6 | 0.4 | 0.3 | 0.4 | 0.1 | 0.2 | 0.5 | 0.7 | 0.7 | 0.6 | Binding of serum 6 to linear peptides of protein N of SARS-CoV Urbani [2]: 0.2; Binding of serum 37 to linear peptides of protein N of SARS-CoV Urbani [2]: 0.7; Binding of serum 62 to linear peptides of protein N of SARS-CoV Urbani [2]: 0.6; Binding of serum London to linear peptides of protein N of SARS-CoV Urbani [2]: 0.9; Binding of serum SARS-green to linear peptides of protein N of SARS-CoV Urbani [2]: 0.3; Binding of serum SARS-yellow to linear peptides of protein N of SARS-CoV Urbani [2]: 0.6
2 | IVWVATEGALNTPKD | 0.1 | 0.2 | 0.2 | 0.3 | 0.1 | 0.2 | 0.2 | 0.3 | 0.1 | 0.5 | 0.3 | 0.3 | 0.9 | 0.2 | 0.1 | 0.2 | 0.4 | 0.8 | 0.8 | 0.5 | Binding of serum 6 to linear peptides of protein N of SARS-CoV Urbani [2]: 0.2; Binding of serum 37 to linear peptides of protein N of SARS-CoV Urbani [2]: 0.7; Binding of serum 62 to linear peptides of protein N of SARS-CoV Urbani [2]: 0.7; Binding of serum London to linear peptides of protein N of SARS-CoV Urbani [2]: 0.6; Binding of serum SARS-green to linear peptides of protein N of SARS-CoV Urbani [2]: 0.3; Binding of serum SARS-yellow to linear peptides of protein N of SARS-CoV Urbani [2]: 0.6
3 | KEGIVWVATEGALNT | 0.1 | 0.4 | 0.2 | 0.3 | 0.1 | 0.2 | 0.2 | 0.4 | 0.2 | 0.6 | 0.5 | 0.4 | 0.3 | 0.5 | 0.1 | 0.2 | 0.6 | 0.7 | 0.6 | 0.7 | Binding of serum 6 to linear peptides of protein N of SARS-CoV Urbani [2]: 0.2; Binding of serum 37 to linear peptides of protein N of SARS-CoV Urbani [2]: 0.7; Binding of serum 62 to linear peptides of protein N of SARS-CoV Urbani [2]: 0.6; Binding of serum London to linear peptides of protein N of SARS-CoV Urbani [2]: 0.4; Binding of serum SARS-green to linear peptides of protein N of SARS-CoV Urbani [2]: 0.5; Binding of serum SARS-yellow to linear peptides of protein N of SARS-CoV Urbani [2]: 0.7
4 | KGQQQQGQTVTKKSA | 0.2 | 0.0 | – | 0.2 | – | 0.1 | – | 0.2 | 0.1 | 0.4 | 0.3 | 0.3 | 0.0 | 0.1 | 0.1 | 0.2 | 0.4 | 1.0 | 0.9 | 0.4 | Binding of serum 1a to linear peptide (PEPSCAN-ELISA) [2]: 0.3; Binding of serum 1b to linear peptide (PEPSCAN-ELISA) [2]: 0.1; Binding of serum 2 to linear peptide (PEPSCAN-ELISA) [2]: 0.2; Binding of serum 6 to linear peptide (PEPSCAN-ELISA) [2]: 0.3; Binding of serum 37 to linear peptide (PEPSCAN-ELISA) [2]: 0.7; Binding of serum 62 to linear peptide (PEPSCAN-ELISA) [2]: 0.8; Binding of serum London to linear peptide (PEPSCAN-ELISA) [2]: 0.6; Binding of serum SARS-green to linear peptide (PEPSCAN-ELISA) [2]: 0.4; Binding of serum SARS-yellow to linear peptide (PEPSCAN-ELISA) [2]: 0.6
